# Data published in patent US20240059725A1, “COUMARIN COMPOUNDS AND A PROCESS FOR PREPARATION THEREOF” (priority 2021, published 2024).
# Tests used:
# [1] = tested on: Human colon carcinoma (HCT-116) cell line; assay: Anticancer activity, MTT assay against HCT-116; type: cell-based; conditions: for IC50: Homo sapiens, HCT-116, interpolated from graph (FIG. 5)
# Method: (§1) The anticancer activity of the compound (3) denoted as “P” and compound (4) denoted as “DP” was assessed invitro by MTT 3-(4,5-dimethylthiazol-2-yl)-2,5-diphenyltetrazolium bromide assay against Human colon carcinoma (HCT-116) cell lines and Human breast adenocarcinoma (MDA-MB-468) respectively.
# (§2) RPMI-1640, fetal bovine serum (FBS), penicillin, streptomycin was procured from HiMedia (Mumbai, India). Doxorubicin, MTT 3-(4,5-dimethylthiazol-2-yl)-2,5-diphenyltetrazolium bromide were procured from Sigma Aldrich (USA). The chemicals used were of analytical or HPLC grade. Human breast adenocarcinoma (MDA-MB-468), Human colon carcinoma (HCT-116) was procured from NCCS, Pune, India. The cell line was grown in the RPMI-1640 with 2 mM L-glutamine, supplemented with 10% FBS, penicillin (100 IU/mL) and streptomycin (100 μg/mL) at 37° C. in a 95% humidified CO2 incubator with 5% CO2 atmosphere. The cell lines were passaged twice weekly for maintaining sub-confluent state.
# (§3) MTT assay was used as cell viability assay. The principle of the assay lies in the fact that the MTT is reduced to formazan crystals by mitochondrial dehydrogenase of the viable cells. The anticancer activity of compounds (3) and (4) was assessed invitro by MTT 3-(4,5-dimethylthiazol-2-yl)-2,5-diphenyltetrazolium bromide assay based on the methods by Mosmann, T and Bose et.al. (Mosmann, T. Journal of Immunological methods. 1983, 65, 55-63; and Bose, D. S.; Idrees, M.; Jakka, N. M.; Rao, J. V. J. Comb. Chem. 2010, 12, 100-110). Doxorubicin (DXN) a known anticancer drug was used as a reference compound in the assay. The treated and untreated cells were washed with PBS (Phosphate buffer saline) and MTT (100 μg/ml) was added and incubated at 37° C. for 5 hr. The MTT was then removed, and the formazan crystals were dissolved by adding DMSO. The absorbance at 540 nm represents the viable cells. The absorbance was recorded using Multiskan spectrum, Thermo scientific. […] The absorbance from the untreated cells was defined as 100% viable cells. The % viable cells were plotted (Y-axis) against concentration (X-axis). The IC50 values were interpolated from the graphs of FIGS. 5 and 6.
# [2] = Cytotoxicity MTT assay in HEK 293 cell line; type: cell-based; conditions: human, HEK 293 cells, 48 hr of treatment, read-out: IC-50 value (cytotoxicity)
# Method: Human embryonic kidney HEK 293 cell line were cultured in complete DMEM (Dulbecco's modified eagle medium) high glucose medium with 10% foetal bovine serum and 1% Penicillin Streptomycin and grown at 37° C.in a humidified incubator with 5% CO2. The cells were grown in T-25 flasks till about 80% confluency and 5000cells/well were seeded in a 96 well cell culture plate.
# After 24 hr the cells were treated with all the concentrations of the drug (compound (4)) in triplicates and incubated for 48 hr.
# After 48 hr of incubation MTT was added at a concentration of 0.5 mg/ml and incubated at 37° C. for 4 hr. After 4 hr the media was discarded from each well and DMSO was added. After 30 mins of incubation at 37° C.the colorimetric data was taken at 570 nm.
# RAW 264.7 cells = assay: Flow cytometry analysis of Reactive Oxygen Species production (DCFDA) in LPS induced RAW cell line; type: cell-based; conditions: RAW cell line treated along with LPS, 48 hours
# Method: RAW cell line was cultured in a T 25 flask in DMEM. After the cells reached confluency evel up to 90 percent, they were seeded in 6 well plates at 1 lakh cells/well. After adhesion of cells drugs were treated along with LPS and kept for 48 hours.
# Flow cytometry analysis of Reactive Oxygen Species production on RAW cell line:
# After 48 hr of treatment cells were harvested and stained with DCFDA and run-on flow cytometer.
# HEK cell line = assay: ROS production in HEK cell line; type: cell-based, Human
# [3] = tested on: Human breast adenocarcinoma (MDA-MB-468) cell line; assay: Anticancer activity, MTT assay against MDA-MB-468; type: cell-based; conditions: for IC50: Homo sapiens, MDA-MB-468, interpolated from graph (FIG. 6)
# Method: as §1, §2, §3
IC50 [1] [µg/mL],IC50 [3] [µg/mL],Compound,"Percentage of cell death ([1]; HCT-116, 1.0 μg/mL) [%]","Percentage of cell death ([1]; HCT-116, 2.0 μg/mL) [%]","Percentage of cell death ([1]; HCT-116, 5.0 μg/mL) [%]","Percentage of cell death ([1]; HCT-116, 10.0 μg/mL) [%]","Percentage of cell death ([1]; HCT-116, 25.0 μg/mL) [%]",IC50 at 48 h [2] [µg/mL],ROS production (RAW 264.7 cells),ROS production (HEK cell line),"Percentage of cell death ([3]; MDA-MB-468, 1.0 μg/mL) [%]","Percentage of cell death ([3]; MDA-MB-468, 2.0 μg/mL) [%]","Percentage of cell death ([3]; MDA-MB-468, 5.0 μg/mL) [%]","Percentage of cell death ([3]; MDA-MB-468, 10.0 μg/mL) [%]","Percentage of cell death ([3]; MDA-MB-468, 25.0 μg/mL) [%]"
3.8,–,CC1(C)OC2OC(COC(=O)c3cc4ccccc4oc3=O)C3OC(C)(C)OC3C2O1 (stereo not drawn) [Compound (3)],25.81 ± 0.015,44.01 ± 0.028,61.45 ± 0.006,75.01 ± 0.076,88.64 ± 0.018,–,–,–,–,–,–,–,–
–,3.2,O=C(OCC1OC(O)C(O)C(O)C1O)c1cc2ccccc2oc1=O (stereo not drawn) [Compound (4)],–,–,–,–,–,> 1000,able to produce ROS in all concentrations,no ROS production,25.71 ± 0.003,42.27 ± 0.026,66.49 ± 0.007,78.66 ± 0.018,86.10 ± 0.015
5,5,"COc1cccc2c1C(=O)c1c(O)c3c(c(O)c1C2=O)C[C@@](O)(C(=O)CO)C[C@@H]3O[C@H]1C[C@H](N)[C@H](O)[C@H](C)O1 [DXN, Doxorubicin, reference compound]",16.12 ± 0.001,31.68 ± 0.012,52.34 ± 0.015,63.76 ± 0.0031,73.45 ± 0.060,–,–,–,16.12 ± 0.001,31.68 ± 0.012,52.34 ± 0.015,63.76 ± 0.0031,73.45 ± 0.060
